According to patent US11052100B2, “Stable nicotinamide riboside composition and preparation method thereof” (BONTAC BIO-ENGINEERING (SHENZHEN) CO., LTD, priority 2018, dated 2021):

Assay: Stability accelerated test (purity of nicotinamide riboside by HPLC)
Format: physicochemical
Conditions: 25° C.±2° C., relative humidity 60% ±10%, average of 3 samples
Protocol: The stability accelerated test was carried out on test subjects (nicotinamide riboside and the nicotinamide riboside composition prepared in Embodiment 1 to Embodiment 4 of the present invention) in accordance with the provisions of the Guidelines for Drug Stability Test in the Chinese Pharmacopoeia 2015. The test method was: taking 3 samples from each test subject in an environment with a temperature of 25° C.±2° C. and a relative humidity of 60% ±10%, taking samples once at the end of the 0th month, 1st month, 2nd month, 3rd month, and 6th month during the test period, detecting the purity of nicotinamide riboside by HPLC, and calculating an average value of 3 parts. In the table, 1, 2, 3 and 4 in the first column represent Embodiment 1, Embodiment 2, Embodiment 3 and Embodiment 4, respectively, NR represents nicotinamide riboside, KGM represents konjac glucomannan, and RA represents rebaudioside A.

NC(=O)c1ccc[n+]([C@@H]2O[C@H](CO)[C@@H](O)[C@H]2O)c1 [NR, Nicotinamide riboside]
purity of nicotinamide riboside by HPLC, 0th month (end of 0th month): 99.6% | purity of nicotinamide riboside by HPLC, 1st month (end of 1st month): 10.6% | purity of nicotinamide riboside by HPLC, 2nd month (end of 2nd month): 5.1% | purity of nicotinamide riboside by HPLC, 3rd month (end of 3rd month): 3.4% | purity of nicotinamide riboside by HPLC, 6th month (end of 6th month): 3.2%
